Results on one compound are retold here after patent publication US10596172B2 (Celgene CAR LLC, priority 2008, dated 2020).

What all share (type): cell-based
For assay [1], the target named is T1, BTK (Homo sapiens (Human), UniProt Q06187). As to the kind of experiment: BTK occupancy in Ramos cells with I-7 and probe I-215 using streptavidin beads. The conditions noted are these: 1 hour, higher concentrations of I-7 (above 10 nM). The procedure: Ramos cells were incubated with 0.1, 0.05, 0.01, or 0.001 μM I-7 in serum free media for 1 hour at 37° C. The cells were pelleted by centrifugation and lysed in Cell Extraction buffer (Invitrogen) for 10 minutes on ice, centrifuged (10 minutes at 14,000 rpm) and the supernatant was collected. Cell lysates were incubated with 1 μM I-215 for 1 hour at room temperature, then incubated with streptavidin-coupled agarose beads (ThermoFisher) overnight at 4° C. The beads were washed three times with lysis buffer and the bound proteins were boiled off the beads at 95° C. for 5 minutes in 4×LDS Sample Buffer. The amount of BTK associated with the probe I-215 was assessed by BTK western blot. All values were normalized to the DMSO-treated sample which is set to 100%.
T1 sequence (Q06187 whole entry): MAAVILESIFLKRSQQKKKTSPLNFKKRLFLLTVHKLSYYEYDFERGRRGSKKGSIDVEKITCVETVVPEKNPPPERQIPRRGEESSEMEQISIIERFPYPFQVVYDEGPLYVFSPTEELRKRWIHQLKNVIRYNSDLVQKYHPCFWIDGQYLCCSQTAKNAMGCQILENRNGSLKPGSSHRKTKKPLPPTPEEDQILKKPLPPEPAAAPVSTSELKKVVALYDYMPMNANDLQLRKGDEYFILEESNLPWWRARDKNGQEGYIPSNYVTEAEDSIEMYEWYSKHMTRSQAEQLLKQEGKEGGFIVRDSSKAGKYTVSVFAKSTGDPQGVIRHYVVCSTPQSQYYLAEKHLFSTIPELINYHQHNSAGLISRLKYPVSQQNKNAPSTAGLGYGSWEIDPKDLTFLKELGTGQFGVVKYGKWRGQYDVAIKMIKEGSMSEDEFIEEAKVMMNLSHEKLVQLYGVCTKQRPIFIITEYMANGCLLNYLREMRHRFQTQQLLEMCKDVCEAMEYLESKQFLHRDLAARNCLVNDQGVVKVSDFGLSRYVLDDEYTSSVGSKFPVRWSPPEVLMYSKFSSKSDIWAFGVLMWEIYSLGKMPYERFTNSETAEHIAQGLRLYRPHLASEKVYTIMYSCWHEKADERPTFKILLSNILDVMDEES

The target in assay [2] is T1, BTK. Kind of assay: Washout experiment with I-7 and probe compound I-215 in Ramos cells. The conditions noted are these: 0.1 μM, 1 hour. The procedure:
Ramos cells were incubated with 0.1 μM I-7 or a reversible BTK inhibitor control compound in serum free media for 1 hour at 37° C. The cells were then washed in compound-free media and lysed 0, 4, 6, or 8 hours after compound removal. Cell lysates were incubated with 1 μM I-215 for 1 hour at room temperature, then overnight at 4° C. with streptavidin-coupled agarose beads. Protein was boiled off the beads and BTK association was assessed by western blot. […] In contrast, with the reversible inhibitor control, 45% of BTK protein is unbound and available to the probe at 0 hours and by 4 hours 100% of BTK protein is unbound and available to bind the probe. All samples were normalized to the DMSO-treated cells harvested at 0 hours.

For assay [3], the target named is T1, BTK. Kind of assay: BTK occupancy from in vitro samples by ELISA (Ramos cells). The procedure: In order to determine the amount of free BTK in cell or tissue lysates, an ELISA protocol was employed that utilizes a biotinylated probe compound that binds only to free, unoccupied BTK. The conjugated biotin is captured on a streptavidin-coated ELISA plate and detected with a mouse anti-BTK antibody (Becton Dickinson, Franklin Lakes, N.J., USA) and a secondary goat anti-mouse HRP antibody (Zymed, South San Francisco, Calif., USA).
All samples were prepared with equal concentrations of Biorad lysis buffer (Hercules, Calif., USA), 0.5% bovine serum albumin in PBS with 0.05% Tween-20 to give a final concentration of 1 μM I-215. Samples were incubated in a mixing plate for 1 hr at room temperature while shaking to allow probe compound I-215 to bind to free BTK. After incubation with I-215, samples were added to a washed, streptavidin-coated ELISA plate (Pierce, Rockford, Ill., USA) and incubated for 1 hr at room temperature while shaking. The plate was then washed with PBS containing 0.05% Tween-20 using an automatic plate washer. Anti-BTK antibody was prepared at 1:1000 dilution in 0.5% BSA in PBS (0.05% Tween-20) and added to the ELISA plate. The plate was incubated for 1 hr at room temperature while shaking. The plate was washed as described above and the secondary HRP antibody was prepared at 1:5000 dilution in 0.5% BSA in PBS (0.05% Tween-20). The plate was incubated and washed as described above. TMB was added to the plate, and OD650 was monitored until reaching 1 OD unit. The reaction was then stopped with addition of H2SO4. The plate was analyzed using Gen 5 software, and a 4 Parameter Logistic curve was employed to quantitate samples. Recombinant BTK (Invitrogen, Carlsbad, Calif., USA) was used for the standard curve.
A concentration designated as “A” is greater than 1 nM; a concentration designated as “B” is greater than 10 nM; and a concentration designated as “C” is greater than 50 nM.

As to `C=CC(=O)Nc1cccc(Nc2nc(Nc3ccccc3)ncc2C)c1` [Compound I-7, N-(3-(5-methyl-2-(phenylamino)pyrimidin-4-ylamino)phenyl)acrylamide], the “BTK occupancy (BTK available to probe I-215)” value on BTK [1] is listed as “fully occupied”. At BTK [2], the “time BTK protein remains occupied after compound removal” value was “over 8 hours”. In addition, on BTK [3], the “>50% occupancy (concentration at which >50% of BTK is occupied)” value is on record as “A (greater than 1 nM)” and the “>90% occupancy (concentration at which >90% of BTK is occupied)” value is “B (greater than 10 nM)”.
